Reference: PubChem BioAssay AID296 (DTP/NCI, 2004)
Where “and” joins values, the source holds several entries; their conditions need not be identical. Identical values can stand only once. Inconclusive results are not listed.

Test system: MX-1 breast xenograft, nude mice, tumor weight T/C
Test: NCI In Vivo Anticancer Drug Screen. Data for tumor model Human Mammary Carcinoma MX-1 Xenograft (intrarenal inoculation) in NU/NU Swiss (nude) mice
Settings: endpoint: mean tumor weight change, higher = larger tumour
Outline: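 Activity is given as a ratio, with each measurement in the compound-treated arm divided by the matching measurement in vehicle-dosed controls. Tumour size or survival serves as the measured parameter.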

[1] = dose: 300.0 mg/kg/injection, schedule: Q04DX003 (sc), vehicle: saline with Tween-80
[2] = dose: 600.0 mg/kg/injection, schedule: Q04DX003 (sc), vehicle: saline with Tween-80
[3] = dose: 1200.0 mg/kg/injection, schedule: Q04DX003 (sc), vehicle: saline with Tween-80
[4] = dose: 2400.0 mg/kg/injection, schedule: Q04DX003 (sc), vehicle: saline with Tween-80
[5] = dose: 100.0 mg/kg/injection, schedule: Q04DX003 (sc), vehicle: saline
[6] = dose: 300.0 mg/kg/injection, schedule: Q04DX003 (sc), vehicle: saline
[7] = dose: 200.0 mg/kg/injection, schedule: Q04DX003 (sc), vehicle: saline with Tween-80
[8] = dose: 400.0 mg/kg/injection, schedule: Q04DX003 (sc), vehicle: saline with Tween-80

For [I][Hg][CH2]C1COC([CH2][Hg][I])CO1 (configuration not stated), the T/C [1] was 86 % of control, the T/C [2] was 77 % of control and the T/C [3] was 115 % of control. For the same compound, the T/C [4] was 82 % of control.
For ClCC[Se](Cl)(Cl)c1ccccc1, the T/C (dose: 12.5 mg/kg/injection, schedule: Q04DX003 (sc), vehicle: saline) was 89 % of control, the T/C (dose: 25.0 mg/kg/injection, schedule: Q04DX003 (sc), vehicle: saline) was 109 % of control and the T/C (dose: 50.0 mg/kg/injection, schedule: Q04DX003 (sc), vehicle: saline) was 80 % of control. The T/C [5] was 59 % of control.
For CCCCCCCC(=O)[O][Hg][CH2]C1COC([CH2][Hg][O]C(=O)CCCCCCC)CO1 (configuration not stated), the T/C [1] was 58 % of control, the T/C [2] was 70 % of control and the T/C [3] was 50 % of control. For the same compound, the T/C [4] was 36 % of control.
CC[N+](CC)(CC)CC was tested, and the T/C (dose: 1.5 mg/kg/injection, schedule: Q01DX010 (sc), vehicle: saline with Tween-80) was 65 % of control and the T/C (dose: 3.0 mg/kg/injection, schedule: Q01DX010 (sc), vehicle: saline with Tween-80) was 103 % of control.
For C=CCOCC1CO1 (configuration not stated), the T/C [6] was 72 % of control.
With Nc1ncnc2c1ncn2C1OC(CO)C(O)C1O (configuration not stated) the T/C (dose: 38.0 mg/kg/injection, schedule: Q04DX003 (sc), vehicle: saline) was 84 % of control, the T/C [5] was 120 % of control and the T/C [7] was 100 % of control. The T/C (dose: 200.0 mg/kg/injection, schedule: Q04DX003 (sc), vehicle: saline) was 72 % of control and 85 % of control, the T/C [8] was 84 % of control and the T/C (dose: 400.0 mg/kg/injection, schedule: Q04DX003 (sc), vehicle: saline) was 91 % of control. The T/C (dose: 800.0 mg/kg/injection, schedule: Q04DX003 (sc), vehicle: saline with Tween-80) was 217 % of control, the T/C (dose: 1600.0 mg/kg/injection, schedule: Q04DX003 (sc), vehicle: saline with Tween-80) was 104 % of control and the T/C (dose: 1600.0 mg/kg/injection, schedule: Q04DX003 (sc), vehicle: saline) was 52 % of control.
With COC1/C=C/C=C(/C)Cc2cc(O)c(Cl)c(c2)N(C)C(=O)CC(OC(=O)C(C)C)C2(C)OC2C(C)C2CC1(O)NC(=O)O2 (configuration not stated) the T/C (dose: 1.0 mg/kg/injection, schedule: Q04DX003 (sc), vehicle: saline + alcohol) was 95 % of control, the T/C (dose: 2.0 mg/kg/injection, schedule: Q04DX003 (sc), vehicle: saline + alcohol) was 78 % of control and 87 % of control (2×) and the T/C (dose: 16.0 mg/kg/injection, schedule: Q04DX003 (sc), vehicle: saline + alcohol) was 3 % of control and -8 % of control.
With O=C1C(NCCO)=C(N2CC2)C(=O)C(NCCO)=C1N1CC1 the T/C (dose: 0.5 mg/kg/injection, schedule: Q04DX003 (ip), vehicle: saline) was 69 % of control, the T/C (dose: 0.75 mg/kg/injection, schedule: Q04DX003 (sc), vehicle: saline) was 64 % of control and the T/C (dose: 1.0 mg/kg/injection, schedule: Q04DX003 (ip), vehicle: saline) was 50 % of control. The T/C (dose: 1.5 mg/kg/injection, schedule: Q04DX003 (sc), vehicle: saline) was 37 % of control, the T/C (dose: 2.0 mg/kg/injection, schedule: Q04DX003 (ip), vehicle: saline) was 29 % of control and the T/C (dose: 2.0 mg/kg/injection, schedule: Q04DX003 (sc), vehicle: saline) was 66 % of control. The T/C (dose: 3.0 mg/kg/injection, schedule: Q04DX003 (sc), vehicle: saline) was 9 % of control, the T/C (dose: 4.0 mg/kg/injection, schedule: Q04DX003 (ip), vehicle: saline) was 8 % of control and the T/C (dose: 8.0 mg/kg/injection, schedule: Q04DX003 (sc), vehicle: saline) was -90 % of control.
With C1CCC2[N-]CC3CCCCC3[N-]CC3CCCCC3[N-]CC3CCCCC3[N-]CC2C1.[Cu] (configuration not stated) the T/C (dose: 3.13 mg/kg/injection, schedule: Q01DX010 (sc), vehicle: Klucel (hydroxypropylcellulose) (HPC)) was 47 % of control, the T/C (dose: 6.25 mg/kg/injection, schedule: Q01DX010 (sc), vehicle: Klucel (hydroxypropylcellulose) (HPC)) was 193 % of control and the T/C (dose: 12.5 mg/kg/injection, schedule: Q01DX010 (sc), vehicle: Klucel (hydroxypropylcellulose) (HPC)) was 178 % of control. For the same compound, the T/C (dose: 25.0 mg/kg/injection, schedule: Q01DX010 (sc), vehicle: Klucel (hydroxypropylcellulose) (HPC)) was 113 % of control.
With Nc1ccc(C(OC(=O)c2cc3ccccc3c(Cc3c(O)c(C(=O)OC(c4ccc(N)cc4)(c4ccc(N)cc4)c4ccc(N)cc4)cc4ccccc34)c2O)(c2ccc(N)cc2)c2ccc(N)cc2)cc1 the T/C (dose: 72.0 mg/kg/injection, schedule: Q04DX003 (sc), vehicle: saline with Tween-80) was 97 % of control, the T/C (dose: 144.0 mg/kg/injection, schedule: Q04DX003 (sc), vehicle: saline with Tween-80) was 104 % of control and the T/C (dose: 288.0 mg/kg/injection, schedule: Q04DX003 (sc), vehicle: saline with Tween-80) was 87 % of control.
N=C(N)Sc1cc(O)ccc1O was tested, and the T/C (dose: 37.5 mg/kg/injection, schedule: Q04DX003 (sc), vehicle: saline) was 96 % of control, the T/C (dose: 75.0 mg/kg/injection, schedule: Q04DX003 (sc), vehicle: saline) was 106 % of control and the T/C (dose: 150.0 mg/kg/injection, schedule: Q04DX003 (sc), vehicle: saline) was 79 % of control. For the same compound, the T/C [6] was 90 % of control.
Nc1ccc2nc3ccc(N)cc3[n+](-c3ccccc3)c2c1 was tested, and the T/C (dose: 18.0 mg/kg/injection, schedule: Q04DX003 (sc), vehicle: saline) was 65 % of control, the T/C (dose: 36.0 mg/kg/injection, schedule: Q04DX003 (sc), vehicle: saline) was 119 % of control and the T/C (dose: 72.0 mg/kg/injection, schedule: Q04DX003 (sc), vehicle: saline) was 72 % of control. The T/C (dose: 144.0 mg/kg/injection, schedule: Q04DX003 (sc), vehicle: saline) was 59 % of control.
COc1ccc(CC2C(=O)NC(C)C(=O)N(C)C3Cc4ccc(cc4)Oc4cc(ccc4O)CC(C(=O)NC(C)C(=O)NC(C)C(=O)N2C)N(C)C3=O)cc1 (configuration not stated) was tested, and the T/C (dose: 8.0 mg/kg/injection, schedule: Q04DX003 (sc), vehicle: saline with Tween-80) was 28 % of control and 44 % of control and 47 % of control, the T/C (dose: 16.0 mg/kg/injection, schedule: Q04DX003 (sc), vehicle: saline with Tween-80) was 20 % of control and 26 % of control and 43 % of control and the T/C (dose: 32.0 mg/kg/injection, schedule: Q04DX003 (sc), vehicle: saline with Tween-80) was 6 % of control and 18 % of control.
For O=[N+]([O-])c1ccc([I+]c2ccccc2)cc1, the T/C (dose: 75.0 mg/kg/injection, schedule: Q04DX003 (ip), vehicle: Klucel (hydroxypropylcellulose) (HPC)) was 92 % of control.
For COC1CC(C)C(OC)C2=CC(=O)C=C(NC(=O)/C(C)=C/C=C\C(C)C(OC(N)=O)/C(C)=C\C(C)C1OC)C2=O (configuration not stated), the T/C (dose: 12.5 mg/kg/injection, schedule: Q04DX003 (sc), vehicle: saline + alcohol) was 81 % of control and the T/C (dose: 25.0 mg/kg/injection, schedule: Q04DX003 (sc), vehicle: saline + alcohol) was 97 % of control.
C=C1C(=O)OC2CC(C)C3C4OC4C(O)C3(C)C(O)C12 (configuration not stated) was tested, and the T/C (dose: 100.0 mg/kg/injection, schedule: Q04DX003 (sc), vehicle: saline with Tween-80) was 113 % of control, the T/C [7] was 116 % of control and the T/C [8] was 101 % of control.
In the case of COC(=O)C(F)C(Br)C(=O)OC (configuration not stated), the T/C (dose: 18.75 mg/kg/injection, schedule: Q04DX003 (sc), vehicle: saline with Tween-80) is reported as 52 % of control, the T/C (dose: 37.5 mg/kg/injection, schedule: Q04DX003 (sc), vehicle: saline with Tween-80) is reported as 49 % of control and the T/C (dose: 75.0 mg/kg/injection, schedule: Q04DX003 (sc), vehicle: saline with Tween-80) is reported as 59 % of control.
Cc1c2cc[n+](C)cc2c(C)c2c1[nH]c1ccc(O)cc12 was tested, and the T/C (dose: 1.5 mg/kg/injection, schedule: Q04DX003 (sc), vehicle: water) was 167 % of control and the T/C (dose: 6.0 mg/kg/injection, schedule: Q04DX003 (sc), vehicle: water) was 91 % of control.
With CCCCn1cnc2c(=S)nc[nH]c21 the T/C (dose: 300.0 mg/kg/injection, schedule: Q04DX003 (sc), vehicle: suspension in saline) was 119 % of control, the T/C (dose: 600.0 mg/kg/injection, schedule: Q04DX003 (sc), vehicle: suspension in saline) was 81 % of control and the T/C (dose: 1024.0 mg/kg/injection, schedule: Q04DX003 (sc), vehicle: suspension in saline) was 67 % of control. The T/C (dose: 1200.0 mg/kg/injection, schedule: Q04DX003 (sc), vehicle: suspension in saline) was 16 % of control, the T/C (dose: 1600.0 mg/kg/injection, schedule: Q04DX003 (sc), vehicle: suspension in saline) was 49 % of control and the T/C (dose: 2000.0 mg/kg/injection, schedule: Q04DX003 (sc), vehicle: suspension in saline) was 4 % of control.
In the case of N=[N+]=CC(=O)OCC(N)C(=O)O (configuration not stated), the T/C (dose: 3.13 mg/kg/injection, schedule: Q01DX010 (sc), vehicle: saline) is reported as -57 % of control and -53 % of control, the T/C (dose: 6.25 mg/kg/injection, schedule: Q01DX010 (sc), vehicle: saline) is reported as -69 % of control and -54 % of control and the T/C (dose: 12.5 mg/kg/injection, schedule: Q01DX010 (sc), vehicle: saline) is reported as -81 % of control and -71 % of control. The T/C (dose: 25.0 mg/kg/injection, schedule: Q01DX010 (sc), vehicle: saline) was -80 % of control.
CN1CCc2c(c3ccccc3c3ccccc23)C1 was tested, and the T/C (dose: 150.0 mg/kg/injection, schedule: Q04DX003 (sc), vehicle: Klucel (hydroxypropylcellulose) (HPC)) was 30 % of control and the T/C (dose: 300.0 mg/kg/injection, schedule: Q04DX003 (sc), vehicle: Klucel (hydroxypropylcellulose) (HPC)) was 45 % of control.
